According to patent US8877747B2, “Indenone derivative and pharmaceutical composition comprising same” (Korea Research Institute of Chemical Technology, priority 2009, dated 2014):
Structures can show the parent of a compound that is named as a salt.

tested on: MC3T3-E1 cells; assay: ALP activity, differentiation of osteoblast cells; type: cell-based; details: Mus musculus, MC3T3-E1, 144 h; MC3T3E1 cells treated with 10 μM compound and OF; relates activity to OF-only group (100%); higher = more efficacious
Experimental: To examine the effects of the inventive indenone derivatives on the differentiation and activation of osteoblast cells, the activity and expression of alkaline phosphatase (ALP), a marker for the differentiation of osteoblast cells, and the bone nodule formation using a mouse derived osteoblast-like cells, MC3T3-E1 (ATCC, Japan) or a primary mouse calvaria derived preosteoblastic cells were observed.
MC3T3-E 1 cells were seeded in a medium containing osteogenic factors (OF) such as ascorbic acids and β-glycerophosphates (b-GP), and each compound of Examples was added thereto at a concentration of 0.1, 1 and 10 μM. The cells were incubated for 6 days (MC3T3-E1 cells) or 7 days (primary mouse calvaria derived preosteoblastic cells) in a 37° C. CO2 incubator. Then, the culture medium was replaced with a fresh medium together with the test compound every two or three days. On the last day, the medium was centrifuged to remove the supernatant, and the cells were washed with PBS. The washed cells were subjected to a 3-cycle freege-thaw treatment using a −70° C. deep freezer to allow enzymes elute in a lysis buffer. The lysed protein was quantified, followed by measurement of ALP activity using 4-nitrophenylphosphate.
Further, a group treated only with DMSO or OF was tested for ALP activities for comparison.

| SMILES | activity at 10 µM |
| --- | --- |
| COc1ccc(C2=C(c3ccccc3)c3ccc(OCCN4CCOCC4)cc3C2=O)cc1F [Example 2, 6-(2-morpholinoethoxy)-2-(3-fluoro-4-methoxyphenyl)-3-phenyl-1H-inden-1-one] | 221% |
| O=C1C(c2cnc3ccccc3c2)=C(c2ccccc2)c2ccc(OCCN3CCOCC3)cc21 [Example 3, 6-(2-morpholinoethoxy)-3-phenyl-2-(quinolin-3-yl)-1H-inden-1-one] | 216% |
| NC(=O)c1ccc(C2=C(c3ccccc3)c3ccc(OCCN4CCOCC4)cc3C2=O)cc1 [Example 4, 4-(6-(2-morpholinoethoxy)-1-oxo-3-phenyl-1H-inden-2-yl)benzamide] | 128% |
| N#Cc1cccc(C2=C(c3ccccc3)c3ccc(OCCN4CCOCC4)cc3C2=O)c1 [Example 5, 3-(6-(2-morpholinoethoxy)-1-oxo-3-phenyl-1H-inden-2-yl)benzonitrile] | 44% |
| COc1ccc(C2=C(c3ccccc3)c3ccc(OCCN4CCOCC4)cc3C2=O)cn1 [Example 6, 6-(2-morpholinoethoxy)-2-(6-methoxypyridin-3-yl)-3-phenyl-1H-inden-1-one] | 63% |
| O=C1C(c2ccc(F)nc2)=C(c2ccccc2)c2ccc(OCCN3CCOCC3)cc21 [Example 9, 6-(2-morpholinoethoxy)-2-(6-fluoropyridin-3-yl)-3-phenyl-1H-inden-1-one] | 87% |
| O=C1C(c2ccc(-c3ccccc3)cc2)=C(c2ccccc2)c2ccc(OCCN3CCOCC3)cc21 [Example 10, 6-(2-morpholinoethoxy)-2-(4-(phenyl)phenyl)-3-phenyl-1H-inden-1-one] | 172% |
| Cc1ccc(C2=C(c3ccccc3)c3ccc(OCCN4CCOCC4)cc3C2=O)cc1 [Example 11, 6-(2-morpholinoethoxy)-3-phenyl-2-p-tolyl-1H-inden-1-one] | 649% |
| N#Cc1ccccc1C1=C(c2ccccc2)c2ccc(OCCN3CCOCC3)cc2C1=O [Example 12, 2-(6-(2-morpholinoethoxy)-1-oxo-3-phenyl-1H-inden-2-yl)benzonitrile] | 365% |
| O=C1C(c2ccc(C(F)(F)F)cc2)=C(c2ccccc2)c2ccc(OCCN3CCOCC3)cc21 [Example 13, 6-(2-morpholinoethoxy)-2-(4-(trifluoromethyl)phenyl)-3-phenyl-1H-inden-1-one] | 151% |
| CC(=O)Nc1cccc(C2=C(c3ccccc3)c3ccc(OCCN4CCOCC4)cc3C2=O)c1 [Example 14, N-(3-(6-(2-morpholinoethoxy)-1-oxo-3-phenyl-1H-inden-2-yl)phenyl)acetamide] | 131% |
| O=C1C(c2cncc3ccccc23)=C(c2ccccc2)c2ccc(OCCN3CCOCC3)cc21 [Example 15, 6-(2-morpholinoethoxy)-2-(isoquinolin-4-yl)-3-phenyl-1H-inden-1-one] | 65% |
| O=C1C(c2ccc3ccccc3c2)=C(c2ccccc2)c2ccc(OCCN3CCOCC3)cc21 [Example 16, 6-(2-morpholinoethoxy)-2-(naphthalen-3-yl)-3-phenyl-1H-inden-1-one] | 713% |
| O=C1C(c2ccc(F)cc2)=C(c2ccccc2)c2ccc(OCCN3CCOCC3)cc21 [Example 17, 6-(2-morpholinoethoxy)-2-(4-fluorophenyl)-3-phenyl-1H-inden-1-one] | 236% |
| O=C1C(c2ccc(F)c(F)c2)=C(c2ccccc2)c2ccc(OCCN3CCOCC3)cc21 [Example 18, 6-(2-morpholinoethoxy)-2-(3,4-difluorophenyl)-3-phenyl-1H-inden-1-one] | 349% |
| Cc1ccc(C2=C(c3ccccc3)c3ccc(OCCN4CCOCC4)cc3C2=O)cc1F [Example 19, 6-(2-morpholinoethoxy)-2-(3-fluoro-4-methylphenyl)-3-phenyl-1H-inden-1-one] | 220% |
| Nc1cccc(C2=C(c3ccccc3)c3ccc(OCCN4CCOCC4)cc3C2=O)c1 [Example 20, 6-(2-morpholinoethoxy)-2-(3-aminophenyl)-3-phenyl-1H-inden-1-one] | 283% |
| O=C1C(c2ccc(Oc3ccccc3)cc2)=C(c2ccccc2)c2ccc(OCCN3CCOCC3)cc21 [Example 21, 6-(2-morpholinoethoxy)-2-(4-phenoxyphenyl)-3-phenyl-1H-inden-1-one] | 130% |
| COc1ccc(C2=C(c3ccccc3)c3ccc(OCCN4CCOCC4)cc3C2=O)cc1 [Example 22, 6-(2-morpholinoethoxy)-2-(4-methoxyphenyl)-3-phenyl-1H-inden-1-one] | 169% |

| SMILES | activity at 10 µM |
| --- | --- |
| O=C1C(c2ccc(Cl)cc2)=C(c2ccccc2)c2ccc(OCCN3CCOCC3)cc21 [Example 23, 6-(2-morpholinoethoxy)-2-(4-chlorophenyl)-3-phenyl-1H-inden-1-one] | 162% |
| O=C1C(c2cccnc2)=C(c2ccc(F)cc2)c2ccc(OCCN3CCOCC3)cc21 [Example 24, 6-(2-morpholinoethoxy)-3-(4-fluorophenyl)-2-(pyridin-3-yl)-1H-inden-1-one] | 121% |
| O=C1C(c2cncnc2)=C(c2ccc(F)cc2)c2ccc(OCCN3CCOCC3)cc21 [Example 25, 6-(2-morpholinoethoxy)-3-(4-fluorophenyl)-2-(pyrimidin-5-yl)-1H-inden-1-one] | 105% |
| O=C1C(c2ccc(F)c(F)c2)=C(c2ccc(F)cc2)c2ccc(OCCN3CCOCC3)cc21 [Example 26, 6-(2-morpholinoethoxy)-2-(3,4-difluorophenyl)-3-(4-fluorophenyl)-1H-inden-1-one] | 79% |
| O=C1C(c2ccc(C(F)(F)F)cc2)=C(c2ccc(F)cc2)c2ccc(OCCN3CCOCC3)cc21 [Example 27, 6-(2-morpholinoethoxy)-2-(4-(trifluoromethyl)phenyl)-3-(4-fluorophenyl)-1H-inden-1-one] | 75% |
| O=C1C(c2cccnc2)=C(c2ccc(Cl)cc2)c2ccc(OCCN3CCOCC3)cc21 [Example 28, 6-(2-morpholinoethoxy)-3-(4-chlorophenyl)-2-(pyridin-3-yl)-1H-inden-1-one] | 134% |
| O=C1C(c2ccc(F)c(F)c2)=C(c2ccc(Cl)cc2)c2ccc(OCCN3CCOCC3)cc21 [Example 29, 6-(2-morpholinoethoxy)-3-(4-chlorophenyl)-2-(3,4-difluorophenyl)-1H-inden-1-one] | 84% |
| O=C1C(c2cncnc2)=C(c2ccc(Cl)cc2)c2ccc(OCCN3CCOCC3)cc21 [Example 30, 6-(2-morpholinoethoxy)-3-(4-chlorophenyl)-2-(pyrimidin-5-yl)-1H-inden-1-one] | 150% |
| O=C1C(c2ccc(C(F)(F)F)cc2)=C(c2ccc(C(F)(F)F)cc2)c2ccc(OCCN3CCOCC3)cc21 [Example 33, 6-(2-morpholinoethoxy)-2,3-bis(4-(trifluoromethyl)phenyl)-1H-inden-1-one] | 65% |
| O=C1C(c2ccc(F)c(F)c2)=C(c2ccc(C(F)(F)F)cc2)c2ccc(OCCN3CCOCC3)cc21 [Example 34, 6-(2-morpholinoethoxy)-3-(4-(trifluoromethyl)phenyl)-2-(3,4-difluorophenyl)-1H-inden-1-one] | 78% |
| O=C1C(c2cncnc2)=C(c2ccc(C(F)(F)F)cc2)c2ccc(OCCN3CCOCC3)cc21 [Example 35, 6-(2-morpholinoethoxy)-3-(4-(trifluoromethyl)phenyl)-2-(pyrimidin-5-yl)-1H-inden-1-one] | 79% |
| O=C1C(c2cccnc2)=C(c2cc(F)cc(F)c2)c2ccc(OCCN3CCOCC3)cc21 [Example 36, 6-(2-morpholinoethoxy)-3-(3,5-difluorophenyl)-2-(pyridin-3-yl)-1H-inden-1-one hydrochloride salt] | 224% |
| O=C1C(c2ccc(C(F)(F)F)cc2)=C(c2cc(F)cc(F)c2)c2ccc(OCCN3CCOCC3)cc21 [Example 37, 6-(2-morpholinoethoxy)-2-(4-(trifluoromethyl)phenyl)-3-(3,5-difluorophenyl)-1H-inden-1-one] | 80% |
| O=C1C(c2ccc(F)c(F)c2)=C(c2cc(F)cc(F)c2)c2ccc(OCCN3CCOCC3)cc21 [Example 38, 6-(2-morpholinoethoxy)-2-(3,4-difluorophenyl)-3-(3,5-difluorophenyl)-1H-inden-1-one] | 77% |
| O=C1C(c2cncnc2)=C(c2cc(F)cc(F)c2)c2ccc(OCCN3CCOCC3)cc21 [Example 39, 6-(2-morpholinoethoxy)-3-(3,5-difluorophenyl)-2-(pyrimidin-5-yl)-1H-inden-1-one] | 92% |
| C[n+]1cccc(C2=C(c3ccccc3)c3ccc(OCC[N+]4(C)CCOCC4)cc3C2=O)c1 [Example 40, 4-methyl-4-(2-{[2-(1-methylpyridin-1-ium-3-yl)-1-oxo-3-phenyl-1H-inden-6-yl]oxy}ethyl)morpholin-4-ium diiodide] | 291% |
| C[n+]1cccc(C2=C(c3ccccc3)c3ccc(OCCN4CCOCC4)cc3C2=O)c1 [Example 41, 1-methyl-3-{6-[2-(morpholin-4-yl)ethoxy]-1-oxo-3-phenyl-1H-inden-2-yl}pyridin-1-ium iodide] | 329% |
| O=C1C(c2ccc[n+]([O-])c2)=C(c2ccccc2)c2ccc(OCC[N+]3([O-])CCOCC3)cc21 [Example 43, 4-oxido-4-(2-{[2-(1-oxidopyridin-1-ium-3-yl)-1-oxo-3-phenyl-1H-inden-6-yl]oxy}ethyl)morpholin-4-ium] | 125% |
